This note sets out measurements from patent US20210040062A1, “AZOLE-SUBSTITUTED PYRIDINE COMPOUND” (TAISHO PHARMACEUTICAL CO., LTD., priority 2016, published 2021).

Usually IC50 stands for the midpoint of a concentration-inhibition curve. The low end stands for greater potency, the high end for weaker potency.

The structures appear in SMILES notation.

One experiment has as its target T1, human CYP4A11 (Homo sapiens, UniProt Q02928).
T1 construct: host or cells: Escherichia coli (membrane fraction)
T1 sequence (Q02928 5-519): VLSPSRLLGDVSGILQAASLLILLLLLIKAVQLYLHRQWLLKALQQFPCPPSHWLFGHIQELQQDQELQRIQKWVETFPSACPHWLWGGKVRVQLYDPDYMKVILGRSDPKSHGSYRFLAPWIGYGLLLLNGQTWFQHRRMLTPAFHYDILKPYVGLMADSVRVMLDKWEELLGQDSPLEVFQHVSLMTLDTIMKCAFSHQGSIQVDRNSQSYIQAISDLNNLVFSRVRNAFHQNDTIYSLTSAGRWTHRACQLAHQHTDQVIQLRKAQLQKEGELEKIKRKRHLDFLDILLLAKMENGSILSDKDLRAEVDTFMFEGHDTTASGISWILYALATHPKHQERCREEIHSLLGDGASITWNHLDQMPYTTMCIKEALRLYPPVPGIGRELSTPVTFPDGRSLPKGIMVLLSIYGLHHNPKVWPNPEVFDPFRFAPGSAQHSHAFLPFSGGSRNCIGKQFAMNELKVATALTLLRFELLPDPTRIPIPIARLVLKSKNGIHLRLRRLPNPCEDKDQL
In words: CYP4A11 inhibition test (Test Example 1). It is filed as biochemical. To be noted: Escherichia coli membrane fraction expressing human CYP4A11, 60 μM luciferine derivative, room temperature 60 minutes, luminescence. The protocol:
(§1) (1) Inhibition Test for Each Compound of the Present Invention Against 20-HETE Producing Enzymes (CYP4F2 and CYP4A11)
(§2) In the CYP4F2 inhibition test, the reaction solution containing each compound [final concentration of 50 mM, KPO4 (pH 7.4), 2.5 μM, luciferine derivative and 1 mM NADPH] was added to an Escherichia coli membrane fraction (100 μg/mL, protein) in which human CYP4F2 had been expressed. In the CYP4A11 inhibition test, the reaction solution containing each compound [final concentration of 100 mM, Tris-HCl (pH 7.5), 60 μM, luciferine derivative, 1.3 mM NADP^+, 3.3 mM Glucose 6-Phosphate, 3.3 mM MgCl2 and 0.4 U/mL Glucose 6-Phosphate dehydrogenase] was added to an Escherichia coli membrane fraction (100 μg/mL, protein) in which human CYP4A11 had been expressed. Following this, the membrane fraction was left to stand at room temperature for 60 minutes to perform an enzymatic reaction. After the reaction, a luciferine detection reagent was added, and the luminescence value was measured using a plate reader.
(§3) A: Luminescence value with addition of compound
(§4) B: Luminescence value without addition of compound and enzyme
(§5) C: Luminescence value without addition of compound

A further experiment addresses T2, human CYP4F2 (Homo sapiens, UniProt P78329).
T2 construct: host or cells: Escherichia coli (membrane fraction)
T2 sequence (P78329 5-520): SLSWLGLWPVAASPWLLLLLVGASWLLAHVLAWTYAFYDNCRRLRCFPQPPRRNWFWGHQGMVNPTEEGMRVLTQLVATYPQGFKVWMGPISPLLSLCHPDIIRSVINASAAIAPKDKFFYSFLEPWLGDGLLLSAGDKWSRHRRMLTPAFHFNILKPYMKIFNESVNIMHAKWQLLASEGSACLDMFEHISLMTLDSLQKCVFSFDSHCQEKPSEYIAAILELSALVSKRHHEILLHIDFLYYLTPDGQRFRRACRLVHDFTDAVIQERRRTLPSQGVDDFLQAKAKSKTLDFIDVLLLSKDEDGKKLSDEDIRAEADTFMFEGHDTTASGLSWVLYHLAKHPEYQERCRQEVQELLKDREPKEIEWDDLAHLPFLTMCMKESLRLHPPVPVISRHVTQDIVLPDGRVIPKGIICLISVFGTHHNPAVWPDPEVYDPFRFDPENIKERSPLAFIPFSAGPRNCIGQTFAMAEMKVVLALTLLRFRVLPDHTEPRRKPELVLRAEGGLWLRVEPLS
The experiment can be described thus: CYP4F2 inhibition test (Test Example 1). As to conditions: Escherichia coli membrane fraction expressing human CYP4F2, 2.5 μM luciferine derivative, room temperature 60 minutes, luminescence. It is filed as biochemical. The protocol:
as §1, §2, §3, §4, §5

On to `CC(C)OC(=O)NCCS(=O)(=O)N1CCC[C@H](COc2ccc(-c3ccn[nH]3)nc2)C1` [Example 1-21], for which the results for the IC50 against human CYP4A11 and against human CYP4F2 were 32 nM and 18 nM, respectively.
For `CCOC(=O)NCCS(=O)(=O)N1CCC[C@H](COc2ccc(-c3ccn[nH]3)nc2)C1` [Example 1-22] the same measures were 44 nM and 37 nM.
Regarding `CC(C)OC(=O)NCCS(=O)(=O)N1CCC[C@@H](COc2ccc(-c3ccn[nH]3)nc2)C1` [Example 1-23], the IC50 against human CYP4A11 and against human CYP4F2 was 26 nM in each case.
As to `CCOC(=O)NCCS(=O)(=O)N1CCC[C@@H](COc2ccc(-c3ccn[nH]3)nc2)C1` [Example 1-24], the IC50 was determined as 35 nM against human CYP4A11 and 40 nM against human CYP4F2.
For `CN(C)S(=O)(=O)N1CC(COc2ccc(-c3ccn[nH]3)nc2)C1` [Example 1-25] the same measures were 1600 nM and 640 nM.
In the same order, the values of `CC(C)S(=O)(=O)N1CC(COc2ccc(-c3ccn[nH]3)nc2)C1` [Example 1-26] are 2300 nM and 93 nM.
In the same order, the values of `CC(C)OC(=O)N1CCC(CCOc2ccc(-c3ccn[nH]3)nc2)CC1` [Example 1-29, Propan-2-yl 4-(2-{[6-(1H-pyrazol-5-yl)pyridin-3-yl]oxy}ethyl)piperidin-1-carboxylate] are 190 nM and 85 nM.
On to `CC(C)COC(=O)N1CCC(CCOc2ccc(-c3ccn[nH]3)nc2)CC1` [Example 1-30], for which the half-inhibitory concentration (IC50) against human CYP4A11 is 110 nM; against human CYP4F2, 11 nM.
For `CC(C)OC(=O)NCCC(=O)N1CCC[C@@H](COc2ccc(-c3ccn[nH]3)nc2)C1` [Example 1-32] the same measures were 67 nM and 27 nM.
In the same order, the values of `CCOC(=O)NCCC(=O)N1CCC[C@@H](COc2ccc(-c3ccn[nH]3)nc2)C1` [Example 1-33] are 83 nM and 54 nM.
As to `COCCOC(=O)NCCC(=O)N1CCC[C@@H](COc2ccc(-c3ccn[nH]3)nc2)C1` [Example 1-34], the values for the IC50 at human CYP4A11 and against human CYP4F2 were 310 nM and 79 nM, respectively.
In the same order, the values of `CN(C)C(=O)NCCC(=O)N1CCC[C@@H](COc2ccc(-c3ccn[nH]3)nc2)C1` [Example 1-35] are 890 nM and 320 nM.
In the same order, the values of `CC(=O)NCCC(=O)N1CCC[C@@H](COc2ccc(-c3ccn[nH]3)nc2)C1` [Example 1-36] are 640 nM and 680 nM.
As for `O=C(NCCC(=O)N1CCC[C@@H](COc2ccc(-c3ccn[nH]3)nc2)C1)C1CC1` [Example 1-37], the results for the IC50 on human CYP4A11 and against human CYP4F2 were 160 nM and 120 nM, respectively.
In the case of `CCOC(=O)N[C@H]1C[C@H](C(=O)N2CCC[C@@H](COc3ccc(-c4ccn[nH]4)nc3)C2)C1` [Example 1-38], the IC50 came to 180 nM against human CYP4A11 and 6.2 nM against human CYP4F2.
As for `CCOC(=O)N[C@H]1C[C@@H](C(=O)N2CCC[C@@H](COc3ccc(-c4ccn[nH]4)nc3)C2)C1` [Example 1-39], the IC50 on human CYP4A11 was 270 nM; against human CYP4F2 it was 11 nM.
In the same order, the values of `CC1(C(=O)N2CCC(COc3ccc(-c4ccn[nH]4)nc3)CC2)CC1` [Example 2-1, (1-Methylcyclopropyl) [4-({[6-(1H-pyrazol-5-yl)pyridin-3-yl]oxy}methyl)piperidin-1-yl]methanone] are 1100 nM and 830 nM.
For `O=C(CC1CC1)N1CCC(COc2ccc(-c3ccn[nH]3)nc2)CC1` [Example 2-2] the same measures were 930 nM and 78 nM.
On to `O=C(C1CCC1)N1CCC(COc2ccc(-c3ccn[nH]3)nc2)CC1` [Example 2-3], for which the IC50 on human CYP4A11 amounted to 360 nM; against human CYP4F2, 76 nM.
As to `O=C(C1CC(F)(F)C1)N1CCC(COc2ccc(-c3ccn[nH]3)nc2)CC1` [Example 2-4], the IC50 on human CYP4A11 worked out at 1100 nM; against human CYP4F2 it was 94 nM.
Turning to `CC1(C(=O)N2CCC(COc3ccc(-c4ccn[nH]4)nc3)CC2)COC1` [Example 2-5], the IC50 worked out at 1600 nM against human CYP4A11 and 810 nM at human CYP4F2.
For `COCCC(=O)N1CCC(COc2ccc(-c3ccn[nH]3)nc2)CC1` [Example 2-6], the IC50 at human CYP4A11 is 2900 nM; at human CYP4F2, 290 nM.
Turning to `O=C([C@H]1CC[C@@H](O)CC1)N1CCC(COc2ccc(-c3ccn[nH]3)nc2)CC1` [Example 2-7], the IC50 on human CYP4A11 worked out at 5300 nM; against human CYP4F2, 440 nM.
Turning to `O=C(C1CCOCC1)N1CCC(COc2ccc(-c3ccn[nH]3)nc2)CC1` [Example 2-8], the IC50 was 5700 nM against human CYP4A11 and 290 nM against human CYP4F2.
On to `O=C(CCO)N1CCC(COc2ccc(-c3ccn[nH]3)nc2)CC1` [Example 2-9], for which the IC50 against human CYP4A11 is 3800 nM; at human CYP4F2, 440 nM.
For `O=C(N1CCC(COc2ccc(-c3ccn[nH]3)nc2)CC1)C1(O)CC1` [Example 2-10] the same measures were 1100 nM and 400 nM.
In the same order, the values of `CN(CCC(=O)N1CCC[C@@H](COc2ccc(-c3ccn[nH]3)nc2)C1)C(=O)OC(C)(C)C` [Example 2-11, tert-Butyl methyl {3-oxo-3-[(3R)-3-({[6-(1H-pyrazol-5-yl)pyridin-3-yl]oxy}methyl)piperidin-1-yl]propyl}carbamate] are 350 nM and 9.5 nM.
As for `C[C@H](CNC(=O)OC(C)(C)C)C(=O)N1CCC[C@@H](COc2ccc(-c3ccn[nH]3)nc2)C1` [Example 2-12], the values for the IC50 against human CYP4A11 and against human CYP4F2 were 540 nM and 23 nM, respectively.
As to `C[C@@H](CNC(=O)OC(C)(C)C)C(=O)N1CCC[C@@H](COc2ccc(-c3ccn[nH]3)nc2)C1` [Example 2-13], the results for the 50% inhibitory concentration (IC50) against human CYP4A11 and at human CYP4F2 were 100 nM and 73 nM, respectively.
Consider `C[C@@H](CC(=O)N1CCC[C@@H](COc2ccc(-c3ccn[nH]3)nc2)C1)NC(=O)OC(C)(C)C` [Example 2-14], for which the IC50 came out at 77 nM against human CYP4A11 and 29 nM against human CYP4F2.
For `CN(C)C(=O)CC(=O)N1CCC[C@@H](COc2ccc(-c3ccn[nH]3)nc2)C1` [Example 2-15] the same measures were 5800 nM and 12000 nM.
For `O=C(CC(=O)N1CCC[C@@H](COc2ccc(-c3ccn[nH]3)nc2)C1)N1CCCC1` [Example 2-16] the same measures were 7600 nM and 3600 nM.
In the case of `CCCCNC(=O)CC(=O)N1CCC[C@@H](COc2ccc(-c3ccn[nH]3)nc2)C1` [Example 2-17], the IC50 is 270 nM at human CYP4A11 and 480 nM against human CYP4F2.
For `CC(C)NC(=O)CC(=O)N1CCC[C@@H](COc2ccc(-c3ccn[nH]3)nc2)C1` [Example 2-18] the same measures were 1800 nM and 2900 nM.
For `O=C([C@H]1CC[C@H](O)CC1)N1CCC[C@@H](COc2ccc(-c3ccn[nH]3)nc2)C1` [Example 3-2, (4-Hydroxycyclohexyl)-((3R)-3-{[6-(1H-pyrazol-5-yl)pyridin-3-yl]oxymethyl}piperidin-1-yl)methanone] the same measures were 2600 nM and 2000 nM.
In the same order, the values of `O=C([C@H]1CC[C@@H](O)CC1)N1CCC[C@@H](COc2ccc(-c3ccn[nH]3)nc2)C1` [Example 3-3, (4-Hydroxycyclohexyl)-((3R)-3-{[6-(1H-pyrazol-5-yl)pyridin-3-yl]oxymethyl}piperidin-1-yl)methanone] are 1700 nM and 790 nM.
With `CS(=O)(=O)CC(=O)N1CCC[C@@H](COc2ccc(-c3ccn[nH]3)nc2)C1` [Example 3-4], the figures for the IC50 at human CYP4A11 and at human CYP4F2 were 500 nM and 4200 nM, respectively.
`O=C(c1ccccc1)N1CCC[C@@H](COc2ccc(-c3ccn[nH]3)nc2)C1` [Example 3-5]: the IC50 on human CYP4A11 stood at 270 nM; on human CYP4F2, 440 nM.
